Tested on: HEK293 cells
Test: HEK293 VLCFA-LPC IC50 determination (13C-labeled C26:0 LPC by UHPLC/MS)
Assay type: cell-based, human
Details: Homo sapiens, HEK293, HEK293 cells; average of one or more replicates; read-out: Average HEK293 IC50
How it was run: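 Suspension HEK293 cells (final 0.5 million/mL after mixing with equal volume) incubated 48 hours with compound plus 13C-acetate (1.0 mg/mL in added media), shaking at 37° C. Lipids extracted with hexane/isopropanol or methanol, C13:0 LPC standard. UHPLC/MS of 13C-labeled C26:0 LPC (638.500/104.100 m/z); IC50 by four-parameter fit.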

SMILES | IC50 [nM]
CC1(C)CC1(C(=O)Nc1ccn(-c2cc(F)cc(F)c2)n1)c1ncccc1F (centres unmarked) [Compound 516, N-[1-(3,5-difluorophenyl)pyrazol-3-yl]-1-(3-fluoro-2-pyridyl)-2,2-dimethyl-cyclopropanecarboxamide] | 1300
COc1ncc(-n2ccc(NC(=O)C3(c4ncccc4F)CC3(C)C)n2)cc1F (centres unmarked) [Compound 517, N-[1-(5-fluoro-6-methoxy-3-pyridyl)pyrazol-3-yl]-1-(3-fluoro-2-pyridyl)-2,2-dimethyl-cyclopropanecarboxamide] | 1100
CC1(C)CC1(C(=O)Nc1ccn(-c2ccncc2)n1)c1ncccc1F (centres unmarked) [Compound 518, 1-(3-fluoro-2-pyridyl)-2,2-dimethyl-N-[1-(4-pyridyl)pyrazol-3-yl]cyclopropanecarboxamide] | 1200
COc1cc(-n2ccc(NC(=O)C3(c4ncccc4F)CC3(C)C)n2)ccn1 (centres unmarked) [Compound 519, 1-(3-fluoro-2-pyridyl)-N-[1-(2-methoxy-4-pyridyl)pyrazol-3-yl]-2,2-dimethyl-cyclopropanecarboxamide] | > 2000
O=C(Nc1ccn(-c2cncc(Cl)c2)n1)C1(c2ncccc2F)CC12CC2 (centres unmarked) [Compound 520, N-[1-(5-chloro-3-pyridyl)pyrazol-3-yl]-2-(3-fluoro-2-pyridyl)spiro[2.2]pentane-2-carboxamide] | 1600
O=C(Nc1ccn(-c2ccc(F)cc2)n1)C1(c2ncccc2F)CC12CC2 (centres unmarked) [Compound 521, N-[1-(4-fluorophenyl)pyrazol-3-yl]-2-(3-fluoro-2-pyridyl)spiro[2.2]pentane-2-carboxamide] | 2300
O=C(Nc1ccn(-c2ccc(F)c(F)c2)n1)C1(c2ncccc2F)CC12CC2 (centres unmarked) [Compound 522, N-[1-(3,4-difluorophenyl)pyrazol-3-yl]-2-(3-fluoro-2-pyridyl)spiro[2.2]pentane-2-carboxamide] | 810
Cc1cc(NC(=O)C2(c3ncccc3F)CC23CC3)nn1-c1ccc(F)cc1F (centres unmarked) [Compound 523, N-[1-(2,4-difluorophenyl)-5-methyl-pyrazol-3-yl]-2-(3-fluoro-2-pyridyl)spiro[2.2]pentane-2-carboxamide] | > 2000
O=C(Nc1ccn(-c2cc(F)cc(F)c2)n1)C1(c2ncccc2F)CC12CC2 (centres unmarked) [Compound 524, N-[1-(3,5-difluorophenyl)pyrazol-3-yl]-2-(3-fluoro-2-pyridyl)spiro[2.2]pentane-2-carboxamide] | 1500
COc1ncc(-n2ccc(NC(=O)C3(c4ncccc4F)CC34CC4)n2)cc1F (centres unmarked) [Compound 525, N-[1-(5-fluoro-6-methoxy-3-pyridyl)pyrazol-3-yl]-2-(3-fluoro-2-pyridyl)spiro[2.2]pentane-2-carboxamide] | 680
O=C(Nc1ccn(-c2ccncc2)n1)C1(c2ncccc2F)CC12CC2 (centres unmarked) [Compound 526, 2-(3-fluoro-2-pyridyl)-N-[1-(4-pyridyl)pyrazol-3-yl]spiro[2.2]pentane-2-carboxamide] | 1900
COc1cc(-n2ccc(NC(=O)C3(c4ncccc4F)CC34CC4)n2)ccn1 (centres unmarked) [Compound 527, 2-(3-fluoro-2-pyridyl)-N-[1-(2-methoxy-4-pyridyl)pyrazol-3-yl]spiro[2.2]pentane-2-carboxamide] | > 2000
CC1CC1(C(=O)Nc1ccn(-c2ccncc2)n1)c1ncccc1F (centres unmarked) [Compound 528, 1-(3-fluoro-2-pyridyl)-2-methyl-N-[1-(4-pyridyl)pyrazol-3-yl]cyclopropanecarboxamide] | 270
O=C(Nc1ccn(-c2cncc(F)c2)n1)C1(c2ncccn2)CC1 [Compound 529, N-[1-(5-fluoro-3-pyridyl)pyrazol-3-yl]-1-pyrimidin-2-yl-cyclopropanecarboxamide] | 1300
O=C(Nc1ccn(-c2cncc(Cl)c2)n1)C1(c2ncccn2)CC1 [Compound 530, N-[1-(5-chloro-3-pyridyl)pyrazol-3-yl]-1-pyrimidin-2-yl-cyclopropanecarboxamide] | > 5000
O=C(Nc1ccn(-c2ccc(F)c(F)c2)n1)C1(c2ncccn2)CC1 [Compound 532, N-[1-(3,4-difluorophenyl)pyrazol-3-yl]-1-pyrimidin-2-yl-cyclopropanecarboxamide] | > 5000
Cc1cc(NC(=O)C2(c3ncccn3)CC2)nn1-c1ccc(F)cc1F [Compound 533, N-[1-(2,4-difluorophenyl)-5-methyl-pyrazol-3-yl]-1-pyrimidin-2-yl-cyclopropanecarboxamide] | > 2000
O=C(Nc1ccn(-c2cc(F)cc(F)c2)n1)C1(c2ncccn2)CC1 [Compound 534, N-[1-(3,5-difluorophenyl)pyrazol-3-yl]-1-pyrimidin-2-yl-cyclopropanecarboxamide] | > 5000
COc1ncc(-n2ccc(NC(=O)C3(c4ncccn4)CC3)n2)cc1F [Compound 535, N-[1-(5-fluoro-6-methoxy-3-pyridyl)pyrazol-3-yl]-1-pyrimidin-2-yl-cyclopropanecarboxamide] | > 5000
O=C(Nc1ccn(-c2ccncc2)n1)C1(c2ncccn2)CC1 [Compound 536, N-[1-(4-pyridyl)pyrazol-3-yl]-1-pyrimidin-2-yl-cyclopropanecarboxamide] | > 5000

Source: patent US20180251431A1 (VERTEX PHARMACEUTICALS INCORPORATED, priority 2016, published 2018)
